The values that follow come from patent publication US20250179103A1, “6-OXODECAHYDROPYRROLO[1,2-A][1,5]DIAZOCINE AND 6-OXODECAHYDRO-4H-PYRROLO[2,1-D][1,5]THIAZOCINE DERIVATIVES AS STAT3 AND STAT6 MODULATORS FOR THE TREATMENT OF CANCER AND INFLAMMATORY CONDITIONS” (Recludix Pharma, Inc., priority 2022, published 2025).

A value given as a limit tells only on which side of the number the result lay.

Assay [1] deals with pY641-STAT6 in Peripheral Blood Mononuclear Cells (PBMC). Kind of assay: MSD-pSTAT-PBMC Assay (pSTAT6, IL-4 stimulated). Format: cell-based, Human. The settings on record: Homo sapiens, compound 3 hrs, then 1 ng/mL IL-4 for 10 min. In short, it runs like this:
(§1)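 Human PBMCs were preincubated 3 h with compound, then stimulated 10 min with 10 ng/mL IL-6 (pY705-STAT3) or 1 ng/mL IL-4 (pY641-STAT6). Lysates were read by MSD sandwich immunoassay, capturing total STAT and detecting phospho-STAT. Signal was unstimulated-subtracted and DMSO-normalised, with variable-slope IC50 binned A–D.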

Assay [2] concerns pY705-STAT3 in Peripheral Blood Mononuclear Cells (PBMC). The assay is described as follows: MSD-pSTAT-PBMC Assay (pSTAT3, IL-6 stimulated). Format: cell-based, Human. The settings on record: Homo sapiens, compound 3 hrs, then 10 ng/mL IL-6 for 10 min. In short, it runs like this: as §1

In general, IC50 refers to the point on the concentration scale where inhibition reaches its midpoint. Low readings indicate greater potency in that assay, high ones weaker potency in that assay. For `CCCOC(=O)OC(C)OP(=O)(OC(C)OC(=O)OCCC)C(F)(F)c1ccc2sc(C(=O)N[C@H]3CN(C(C)=O)CC[C@H]4CC[C@@H](C(=O)N(C)c5ccccc5)N4C3=O)cc2c1` (stereo partly drawn) [Compound 293, ((((2-(((5S,8S, 10aR)-3-acetyl-8-(methyl (phenyl)carbamoyl)-6-oxodecahydro-pyrrolo[1,2-a][1,5]diazocin-5-yl)carbamoyl)benzo[b]thiophen-5-yl)difluoro-methyl)phos-phoryl)bis(oxy)) bis(ethane-1,1-diyl) dipropyl bis(carbonate)], the IC50 in assay [1] and in assay [2] was greater than 3 µM throughout.
For the compound `CC(=O)N1CC[C@H]2CC[C@@H](C(=O)Nc3ccc4nnccc4c3)N2C(=O)[C@@H](NC(=O)c2cc3cc(C(F)(F)P(=O)(OCOC(=O)C(C)(C)C)OCOC(=O)C(C)(C)C)ccc3s2)C1` [Compound 294, ((((2-(((5S,8S, 10aR)-3-acetyl-8-(cinnolin-6-ylcarbamoyl)-6-oxodecahydro-pyrrolo[1,2-a][1,5]diazocin-5-yl)carbamoyl)benzo[b]thiophen-5-yl)difluoro-methyl)phos-phoryl)bis(oxy)) bis(methylene) bis(2,2-dimethylpro-panoate)], the IC50 in assay [1] and in assay [2] was 0.1 to 1 µM each time.
In the case of `CC(=O)N1CC[C@H]2CC[C@@H](C(=O)N(C)c3ccccc3)N2C(=O)[C@@H](NC(=O)c2cc3cc(C(F)P(=O)(OCOC(=O)C(C)(C)C)OCOC(=O)C(C)(C)C)ccc3s2)C1` (stereo partly drawn) [Compound 295, ((((2-(((5S,8S, 10aR)-3-acetyl-8-(methyl (phenyl)carbamoyl)-6-oxodecahydro-pyrrolo[1,2-a][1,5]diazocin-5-yl)carbamoyl)benzo[b]thiophen-5-yl)fluoro-methyl)phos-phoryl)bis(oxy))bis (methylene) bis(2,2-dimethylpro-panoate)], the IC50 in assay [1] and in assay [2] was 0.1 to 1 µM each time.
As for `CC(=O)N1CC[C@H]2CC[C@@H](C(=O)N(C)c3ccccc3)N2C(=O)[C@@H](NC(=O)c2cc3cc(C(F)(F)P(=O)(OCOC(=O)C(C)(C)C)OCOC(=O)C(C)(C)C)ccc3s2)C1` [Compound 296, ((((2-(((5S,8S, 10aR)-3-acetyl-8-(methyl (phenyl)carbamoyl)-6-oxodecahydro-pyrrolo[1,2-a][1,5]diazocin-5-yl)carbamoyl)benzo[b]thiophen-5-yl)difluoro-methyl)phos-phoryl)bis(oxy)) bis(methylene) bis(2,2-dimethylpro-panoate)], the IC50 is no more than 0.1 µM in assay [1] and 0.1 to 1 µM in assay [2].
As to `CC(=O)N1CC[C@H]2CC[C@@H](C(=O)N(C)c3ccccc3)N2C(=O)[C@@H](NC(=O)c2cc3cc(C(F)(F)P(=O)(OCOC(=O)C(C)(C)C)OCOC(=O)C(C)(C)C)ccc3[nH]2)C1` [Compound 300, ((((2-(((5S, 8S,10aR)-3-acetyl-8-(methyl (phenyl)carbamoyl)-6-oxodecahydro-pyrrolo[1,2-a][1,5]diazocin-5-yl)carbamoyl)-1H-indol-5-yl)difluoro-methyl)phos-phoryl)bis(oxy)) bis(methylene) bis(2,2-dimethylpro-panoate)], the IC50 in assay [1] and in assay [2] was 0.1 to 1 µM in each case.
As for `CC(=O)N1CC[C@H]2CC[C@@H](C(=O)N3C[C@H](O)[C@@H](n4ccnn4)C3)N2C(=O)[C@@H](NC(=O)c2ccc3ccc(C(F)(F)P(=O)(OCCSC(=O)CC(C)C)OCCSC(=O)CC(C)C)cc3c2)C1` [Compound 305, S,S′-(((((7-(((5S,8S, 10aR)-3-acetyl-8-((3S,4S)-3-hydroxy-4-(1H-1,2,3-triazol-1-yl)pyrrolidine-1-carbonyl)-6-oxodecahydro-pyrrolo[1,2-a][1,5]diazocin-5-yl)carbamoyl)naphthalen-2-yl)difluoro-methyl)phos-phoryl)bis(oxy))bis(ethane-2,1-diyl)) bis(3-methylbutane-thioate)], the IC50 in assay [1] is greater than 3 µM; in assay [2], 1 to 3 µM.
Consider `CC(=O)N1CC[C@H]2CC[C@@H](C(=O)N(C)c3ccccc3)N2C(=O)[C@@H](NC(=O)c2cc3cc(C(=O)P(=O)(OCOC(=O)C(C)(C)C)OCOC(=O)C(C)(C)C)ccc3s2)C1` [Compound 307, (((2-(((5S, 8S,10aR)-3-acetyl-8-(methyl (phenyl)carbamoyl)-6-oxo-decahydro-pyrrolo[1,2-a][1,5]diazocin-5-yl)carbamoyl)benzo[b]thiophene-5-carbonyl)phosphoryl)bis(oxy))bis (methylene) bis(2,2-dimethylpro-panoate)], for which the IC50 in assay [1] and in assay [2] was greater than 3 µM in each case.
Regarding `CC(=O)N1CC[C@H]2CC[C@@H](C(=O)Nc3ccc(-c4ccccc4)cc3)N2C(=O)[C@@H](NC(=O)c2cc3cc(C(F)(F)P(=O)(OCOC(=O)C(C)(C)C)OCOC(=O)C(C)(C)C)ccc3[nH]2)C1` [Compound 308, ((((2-(((5S, 8S,10aR)-8-([1,1′-biphenyl]-4-ylcarbamoyl)-3-acetyl-6-oxodecahydro-pyrrolo[1,2-a][1,5]diazocin-5-yl)carbamoyl)-1H-indol-5-yl)difluoro-methyl)phos-phoryl)bis(oxy)) bis(methylene) bis(2,2-dimethylpro-panoate)], the IC50 in assay [1] and in assay [2] was 0.1 to 1 µM in each case.
For the compound `CC(=O)N1CC[C@H]2CC[C@@H](C(=O)Nc3cnc(S(C)(=O)=O)nc3)N2C(=O)[C@@H](NC(=O)c2cc3cc(C(F)(F)P(=O)(OCOC(=O)C(C)(C)C)OCOC(=O)C(C)(C)C)ccc3s2)C1` [Compound 309, ((((2-(((5S, 8S,10aR)-3-acetyl-8-((2-(methyl-sulfonyl)pyrimidin-5-yl)carbamoyl)-6-oxodecahydro-pyrrolo[1,2-a][1,5]diazocin-5-yl)carbamoyl)benzo[b]thiophen-5-yl)difluoro-methyl)phos-phoryl)bis(oxy)) bis(methylene) bis(2,2-dimethylpro-panoate)], the IC50 in assay [1] is 1 to 3 µM; in assay [2] it was greater than 3 µM.
Regarding `CC(=O)N1CC[C@H]2CC[C@@H](C(=O)N(C)c3ccc(-c4ccccc4)cc3)N2C(=O)[C@@H](NC(=O)c2cc3cc(C(F)(F)P(=O)(OCOC(=O)C(C)(C)C)OCOC(=O)C(C)(C)C)ccc3s2)C1` [Compound 310, ((((2-(((5S, 8S,10aR)-8-([1,1′-biphenyl]-4-yl(methyl)carbamoyl)-3-acetyl-6-oxodecahydro-pyrrolo[1,2-a][1,5]diazocin-5-yl)carbamoyl)benzo[b]thiophen-5-yl)difluoro-methyl)phos-phoryl)bis(oxy)) bis(methylene) bis(2,2-dimethylpro-panoate)], the IC50 in assay [1] and in assay [2] was 0.1 to 1 µM in each case.
Consider `CC(=O)N1CC[C@H]2CC[C@@H](C(=O)N(C)c3ccc(N4CCOCC4)cc3)N2C(=O)[C@@H](NC(=O)c2cc3cc(C(F)(F)P(=O)(OCOC(=O)C(C)(C)C)OCOC(=O)C(C)(C)C)ccc3s2)C1` [Compound 311, ((((2-(((5S, 8S,10aR)-3-acetyl-8-(methyl(4-morpholino-phenyl)carbamoyl)-6-oxodecahydro-pyrrolo[1,2-a][1,5]diazocin-5-yl)carbamoyl)benzo[b]thiophen-5-yl)difluoro-methyl)phos-phoryl)bis(oxy)) bis(methylene) bis(2,2-dimethylpro-panoate)], for which the IC50 was in the range of 0.1 to 1 µM in assay [1] and 1 to 3 µM in assay [2].
